Here are results for two compounds from patent publication EP0411494A2, “Ergoline derivatives having dopaminergic activity” (priority 1989, dated 1991).

In one test the test system is mouse. The test can be described thus: Locomotor activity in the mouse. The class given is in vivo.
The test system of test [1] is Spontaneously hypertensive rats (SHR). The test can be described thus: Antihypertensive activity on spontaneously hypertensive rats (SHR). It is filed as in vivo, rat. The settings on record: for Mean arterial pressure % reduction: SHR. The source says: All the compounds of formula (I) have antihypertensive activity on Spontaneously hypertensive rats (SHR), as clearly shown by the results reported in the following Table III.

A further test relates to rat seminal vesicle. The test can be described thus: Adrenolytic activity in the rat seminal vesicle test in vitro. The source says:
Most of the compounds of formula (I) have a marked adrenolytic activity in the rat seminal vesicle test in vitro.

The subject of test [2] is isolated uterus of female rat. The test can be described thus: Antiserotonin activity in vitro on isolated uterus of female rat. The settings on record: for ED₅₀: antiserotonin activity, isolated uterus of female rat. The source says: All the compounds of the invention have a marked antiserotonin activity in vitro test on isolated uterus of female rat.
In the next test the test system is reserpinized rat. The test is described as follows: Antihyperprolactinemic activity in the reserpinized rat. It is filed as in vivo. The settings on record: for Plasmatic prolactin % reduction: reserpinized rat.
The next test has as its system guinea pig platelet. The test is described as follows: In vitro guinea pig platelet aggregation induced by ADP. The settings on record: guinea pig platelets. It is filed as cell-based.
Another test deals with rat. The test is described as follows: Stereotypy test in the rat. It is filed as in vivo. The settings on record: dose 10 mg/kg i.p.
Where [3] appears, read: After 1 hour, dose 0.25 mg/kg os.
Setting [4] is: After 2 hours, dose 0.50 mg/kg os.

A word on the % inhibition: it is how much of the control response was suppressed.

Regarding `CN(C[C@@H]1C=C2c3cccc4[nH]cc(c34)C[C@H]2N(C)C1)C1CC1` [P 1427, N-methyl-N-cyclopropyl-9,10-didehydro-6-methylergoline-8β-methanamine], the “% inhibition” value with mouse (dose 20 mg/kg i.p.) amounted to 92.7%. The “Mean arterial pressure % reduction” value turned out to be 35.6% in test [1] (dose = 1 mg/kg i.p.) and 32.4% in test [1] (dose = 3 mg/kg i.p.). In test [1] (result in words), the “hypotensive / antihypertensive activity” value is “high”. In addition, the ED₅₀ in the test on rat seminal vesicle amounted to 0.70 µg/mL; in test [2] it was 0.004 µg/mL. For the same compound, the antiserotonin activity result in test [2] (result in words) is on record as “high”. Moreover, the “Plasmatic prolactin % reduction” value in the test with reserpinized rat (setting [3]) is listed as 67.2%; in the test on reserpinized rat (setting [4]), 86.6%. The antihyperprolactinemic activity entry in the test with reserpinized rat (result in words) is “interesting”. Besides, the “Platelet aggregation % reduction” value in the test with guinea pig platelet (Dose 40 mcg/ml) was determined as 25%.
Regarding α-Bromocryptine [reference compound], the Mean score in the test on rat was 2.25. The “% inhibition” value in the test on mouse (dose 10 mg/kg i.p.) is recorded as 78.7%. For the same compound, the ED₅₀ in test [2] stood at 0.470 µg/mL. The “Plasmatic prolactin % reduction” value with reserpinized rat (setting [3]) is on record as 78.2%; in the test with reserpinized rat (setting [4]), 80.9%. Also, the “Platelet aggregation % reduction” value in the test on guinea pig platelet (Dose 80 mcg/ml) is recorded as 25%.
